We go through 4 compounds from US20170022171A1, “2,5-DISUBSTITUTED CYCLOPENTANECARBOXYLIC ACIDS AND THEIR USE” (Bayer Pharma Aktiengesellschaft, priority 2014, published 2017).

pIC50: −log10 of the molar value.

One may read the pIC50 as the negative decadic logarithm of the IC50, by convention in mol/L. Lower therefore signals a large IC50.

What all share (type): biochemical
In one experiment the target is T1, mouse MMP-2 (Mus musculus, UniProt P33434).
T1 construct: purchased R&D Systems 924-MP
Briefly: In vitro mouse MMP-2 inhibition test.

Another experiment addresses T2, MMP-1 (Homo sapiens, UniProt P03956).
T2 construct: purchased R&D Systems 901-MP
T2 sequence (P03956 100-469): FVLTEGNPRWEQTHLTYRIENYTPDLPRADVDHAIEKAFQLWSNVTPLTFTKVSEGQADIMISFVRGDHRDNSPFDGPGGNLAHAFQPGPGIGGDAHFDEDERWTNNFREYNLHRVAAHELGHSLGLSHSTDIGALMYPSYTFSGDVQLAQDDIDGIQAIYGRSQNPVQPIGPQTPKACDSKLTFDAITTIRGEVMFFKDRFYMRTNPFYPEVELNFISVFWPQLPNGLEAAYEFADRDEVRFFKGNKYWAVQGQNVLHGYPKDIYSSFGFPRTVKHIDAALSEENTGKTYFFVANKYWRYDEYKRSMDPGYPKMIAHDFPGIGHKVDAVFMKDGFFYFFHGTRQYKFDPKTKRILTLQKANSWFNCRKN
Briefly: In vitro MMP-1 inhibition test. Summed up: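 APMA-activated recombinant enzyme (e.g. 2 nM final) in 50 mM Tris/HCl pH 7.5, 10 mM CaCl2, 150 mM NaCl, 0.05% Brij-35 with compound in DMSO (e.g. 1 nM–30 μM). Quenched Mca-Pro-Leu-Gly-Leu-Dpa(Dnp)-Ala-Arg-NH2 substrate (e.g. 10 μM) started reaction; fluorescence (ex 320/em 410 nm) followed e.g. 120 min at 32° C; IC50 at 50% signal.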

For another experiment, the target named is T3, MMP-14 (Homo sapiens, UniProt P50281).
T3 construct: purchased R&D Systems 918-MP
In words: In vitro MMP-14 inhibition test. Summed up: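 Furin-activated recombinant MMP-14 (e.g. 0.5 nM final) with compound in Tris pH 7.5, CaCl2, NaCl, Brij-35 buffer; Mca/Dnp quenched peptide substrate, e.g. 5 μM final. Fluorescence (ex 320/em 410 nm) followed e.g. 120 min at 32 °C; IC50 at half-maximal signal.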

The next experiment has as its target T4, MMP-13 (Homo sapiens, UniProt P45452).
T4 construct: purchased R&D Systems 511-MP
Briefly: In vitro MMP-13 inhibition test. A digest of the protocol:
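APMA-activated recombinant MMP-13 (e.g. 0.1 nM final) in 50 mM Tris/HCl pH 7.5, 10 mM CaCl2, 150 mM NaCl, 0.05% Brij-35 with Mca-PLGL-Dpa(Dnp)-AR-NH2 substrate (e.g. 10 μM final). Fluorescence (ex 320/em 410 nm) followed e.g. 120 min at 32 °C; IC50 at 50% signal.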

T1 sequence (P33434 110-662): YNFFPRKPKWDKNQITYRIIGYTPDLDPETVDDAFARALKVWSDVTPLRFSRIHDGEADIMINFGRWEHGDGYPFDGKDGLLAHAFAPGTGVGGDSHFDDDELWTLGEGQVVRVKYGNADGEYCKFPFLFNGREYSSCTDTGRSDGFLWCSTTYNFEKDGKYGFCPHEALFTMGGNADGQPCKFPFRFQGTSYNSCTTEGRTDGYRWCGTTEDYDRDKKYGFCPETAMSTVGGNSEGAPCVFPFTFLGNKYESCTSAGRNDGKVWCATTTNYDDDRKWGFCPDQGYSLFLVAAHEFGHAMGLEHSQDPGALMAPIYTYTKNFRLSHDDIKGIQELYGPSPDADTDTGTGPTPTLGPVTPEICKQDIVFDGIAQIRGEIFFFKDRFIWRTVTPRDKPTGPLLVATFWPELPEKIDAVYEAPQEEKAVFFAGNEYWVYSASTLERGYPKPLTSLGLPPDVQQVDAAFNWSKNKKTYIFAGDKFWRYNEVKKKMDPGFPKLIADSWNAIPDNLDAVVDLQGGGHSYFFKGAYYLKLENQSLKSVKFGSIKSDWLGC

Turning to `Cc1ccc2nnn(C[C@H]3CC[C@@H](C(=O)c4ccc(OCc5ccccc5)cc4)[C@@H]3C(=O)O)c(=O)c2c1` (single isomer, unassigned) [Example 92, (+)-(1RS,2RS,5SR)-2-[4-(Benzyloxy)benzoyl]-5-[(6-methyl-4-oxo-1,2,3-benzotriazin-3(4H)-yl)methyl]cyclopentanecarboxylic acid], the negative-log IC50 (pIC50) on mouse MMP-2 is 7.24; at MMP-1, 5.51; at MMP-14 it was 7.48; against MMP-13 it was 7.57.
Taken in the same sequence, the figures for `CCCCCCOc1ccc(C(=O)[C@@H]2CC[C@H](Cn3nnc4ccc(C)cc4c3=O)[C@H]2C(=O)O)cc1` (single isomer, unassigned) [Example 121, (+)-(1RS,2RS,5SR)-2-[4-(Hexyloxy)benzoyl]-5-[(6-methyl-4-oxo-1,2,3-benzotriazin-3(4H)-yl)methyl]cyclopentanecarboxylic acid] were 6.38, 4.89, 6.09 and 6.52.
Taken in the same sequence, the figures for `O=C(O)[C@@H]1[C@@H](Cn2nnc3ccc(C(F)(F)F)cc3c2=O)CC[C@H]1C(=O)c1ccc(OCCC2CCCCC2)cc1` (single isomer, unassigned) [Example 52, (+)-(1RS,2RS,5SR)-2-[4-(2-Cyclohexylethoxy)benzoyl]-5-{[4-oxo-6-(trifluoromethyl)-1,2,3-benzotriazin-3(4H)-yl]methyl}cyclopentanecarboxylic acid] were 5.74, 5.20, 5.44 and 5.80.
For the compound `O=C(O)[C@H]1[C@H](Cn2nnc3ccccc3c2=O)CC[C@@H]1C(=O)c1ccc(OCc2cccc(Cl)c2)cc1` (racemic) [Example 2, (+/−)-(1RS,2RS,5SR)-2-{4-[(3-Chlorobenzyl)oxy]benzoyl}-5-[(4-oxo-1,2,3-benzotriazin-3(4H)-yl)methyl]cyclopentanecarboxylic acid], the pIC50 at mouse MMP-2 was 6.40; on MMP-1 it was < 4.40; against MMP-14, 6.32; against MMP-13, 6.40.
